Values after ≈ are worked out from the molar mass of the structure shown.
How the values were obtained:
[1] = tested on: Mannheimia haemolytica; test: minimum inhibitory concentration (MIC)
Protocol: (§1)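 Broth microdilution MIC (Sensititre BOPO7F bovine plate, CLSI methods) of 19 antimicrobials against field isolates of P. multocida, M. haemolytica, H. somni (deep nasopharyngeal swabs) and E. coli, Enterococcus spp. (rectal swabs) from weaned dairy heifers. Incubation 16-24 h at 35 C. MIC is the lowest concentration preventing visible growth. Values with <= or > lie at the tested range limits. Trimethoprim-sulfamethoxazole is given as the trimethoprim component of a 1:19 mixture.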

[2] = tested on: Enterococcus spp.; test: minimum inhibitory concentration (MIC)
Protocol: as §1

CC[C@H]1OC(=O)C[C@@H](O)[C@H](C)[C@@H](O[C@@H]2O[C@H](C)[C@@H](O)[C@H](N(C)C)[C@H]2O)[C@@H](CCN2C[C@H](C)C[C@H](C)C2)C[C@@H](C)C(=O)/C=C/C(C)=C/[C@@H]1CO[C@@H]1O[C@H](C)[C@@H](O)[C@@H](OC)[C@H]1OC [Tilmicosin]
minimum inhibitory concentration [µg/mL]
Conditions | [1] | [2]
isolate (source animal id): 2 | – | 8 (≈ 9.2 µM)
isolate (source animal id): 8 | 4 (≈ 4.6 µM) | –
isolate (source animal id): 13 | 4 (≈ 4.6 µM) | –
isolate (source animal id): 18 | 4 (≈ 4.6 µM) | –
isolate (source animal id): 21 | 4 (≈ 4.6 µM) | –
isolate (source animal id): 25 | > 16 | –
isolate (source animal id): 27 | > 16 | –
isolate (source animal id): 28 | 16 (≈ 18.4 µM) | –
isolate (source animal id): 30 | 8 (≈ 9.2 µM) | –
isolate (source animal id): 31 | > 16 | –
isolate (source animal id): 32 | 4 (≈ 4.6 µM) | –
isolate (source animal id): 34 | 8 (≈ 9.2 µM) | –
isolate (source animal id): 35 | – | > 16
isolate (source animal id): 36 | > 16 | –
isolate (source animal id): 37 | > 16 | –
isolate (source animal id): 40 | 4 (≈ 4.6 µM) | –
isolate (source animal id): 41 | 4 (≈ 4.6 µM) | –
isolate (source animal id): 42 | – | 8 (≈ 9.2 µM)
isolate (source animal id): 43 | 4 (≈ 4.6 µM) | –
isolate (source animal id): 44 | – | 8 (≈ 9.2 µM)
isolate (source animal id): 46 | > 16 | –
isolate (source animal id): 49 | > 16 | –
isolate (source animal id): 50 | > 16 | –
isolate (source animal id): 51 | 4 (≈ 4.6 µM) | –
isolate (source animal id): 52 | 4 (≈ 4.6 µM) | –
isolate (source animal id): 53 | 4 (≈ 4.6 µM) | –
isolate (source animal id): 55 | 4 (≈ 4.6 µM) | –
isolate (source animal id): 56 | 4 (≈ 4.6 µM) | –
isolate (source animal id): 57 | > 16 | –
isolate (source animal id): 79 | – | 8 (≈ 9.2 µM)
isolate (source animal id): 88 | – | 8 (≈ 9.2 µM)
isolate (source animal id): 91 | – | 8 (≈ 9.2 µM)
isolate (source animal id): 92 | – | 16 (≈ 18.4 µM)
isolate (source animal id): 100 | > 16 | –
isolate (source animal id): 103 | > 16 | –
isolate (source animal id): 107 | 16 (≈ 18.4 µM) | –
isolate (source animal id): 108 | 16 (≈ 18.4 µM) | –
isolate (source animal id): 111 | – | 8 (≈ 9.2 µM)
isolate (source animal id): 112 | > 16 | –
isolate (source animal id): 113 | > 16 | –
isolate (source animal id): 121 | > 16 | –
isolate (source animal id): 122 | > 16 | > 16
isolate (source animal id): 123 | > 16 | 8 (≈ 9.2 µM)
isolate (source animal id): 126 | > 16 | –
isolate (source animal id): 133 | > 16 | 8 (≈ 9.2 µM)
isolate (source animal id): 135 | > 16 | –
isolate (source animal id): 138 | > 16 | –
isolate (source animal id): 141 | > 16 | –
isolate (source animal id): 142 | > 16 | –
isolate (source animal id): 145 | 16 (≈ 18.4 µM) | –
isolate (source animal id): 149 | 8 (≈ 9.2 µM) | –
isolate (source animal id): 151 | 8 (≈ 9.2 µM) | –
isolate (source animal id): 152 | > 16 | –
isolate (source animal id): 154 | 8 (≈ 9.2 µM) | –
isolate (source animal id): 158 | – | > 16
isolate (source animal id): 159 | > 16 | –
isolate (source animal id): 162 | > 16 | –
isolate (source animal id): 168 | – | 16 (≈ 18.4 µM)
isolate (source animal id): 169 | – | 16 (≈ 18.4 µM)
isolate (source animal id): 170 | 16 (≈ 18.4 µM) | –
isolate (source animal id): 171 | 8 (≈ 9.2 µM) | 16 (≈ 18.4 µM)
isolate (source animal id): 172 | 16 (≈ 18.4 µM) | –
isolate (source animal id): 173 | 16 (≈ 18.4 µM) | –
isolate (source animal id): 175 | – | > 16
isolate (source animal id): 177 | – | 16 (≈ 18.4 µM)
isolate (source animal id): 179 | 8 (≈ 9.2 µM) | –
isolate (source animal id): 180 | 4 (≈ 4.6 µM) | –
isolate (source animal id): 181 | – | 8 (≈ 9.2 µM)
isolate (source animal id): 182 | – | 16 (≈ 18.4 µM)
isolate (source animal id): 183 | 4 (≈ 4.6 µM) | 8 (≈ 9.2 µM)
isolate (source animal id): 186 | 4 (≈ 4.6 µM) | –
isolate (source animal id): 187 | 8 (≈ 9.2 µM) | 16 (≈ 18.4 µM)
isolate (source animal id): 188 | 4 (≈ 4.6 µM) | –
isolate (source animal id): 190 | 4 (≈ 4.6 µM) | 8 (≈ 9.2 µM)
isolate (source animal id): 191 | 16 (≈ 18.4 µM) | –
isolate (source animal id): 192 | 8 (≈ 9.2 µM) | –
isolate (source animal id): 194 | – | 8 (≈ 9.2 µM)
isolate (source animal id): 195 | – | 8 (≈ 9.2 µM)
isolate (source animal id): 197 | – | 8 (≈ 9.2 µM)
isolate (source animal id): 201 | 16 (≈ 18.4 µM) | –
isolate (source animal id): 202 | 16 (≈ 18.4 µM) | –
isolate (source animal id): 209 | 16 (≈ 18.4 µM) | –
isolate (source animal id): 211 | 16 (≈ 18.4 µM) | 8 (≈ 9.2 µM)
isolate (source animal id): 214 | – | 8 (≈ 9.2 µM)
isolate (source animal id): 220 | 16 (≈ 18.4 µM) | –
isolate (source animal id): 221 | 8 (≈ 9.2 µM) | –
isolate (source animal id): 222 | – | 8 (≈ 9.2 µM)
isolate (source animal id): 223 | 8 (≈ 9.2 µM) | 8 (≈ 9.2 µM)
isolate (source animal id): 228 | – | > 16
isolate (source animal id): 230 | – | > 16
isolate (source animal id): 233 | 8 (≈ 9.2 µM) | –
isolate (source animal id): 235 | – | > 16
isolate (source animal id): 236 | – | 8 (≈ 9.2 µM)
isolate (source animal id): 237 | > 16 | –
isolate (source animal id): 239 | – | 4 (≈ 4.6 µM)
isolate (source animal id): 241 | > 16 | > 16
isolate (source animal id): 244 | – | 16 (≈ 18.4 µM)
isolate (source animal id): 246 | – | 16 (≈ 18.4 µM)
isolate (source animal id): 247 | – | > 16
isolate (source animal id): 250 | – | 16 (≈ 18.4 µM)
isolate (source animal id): 252 | > 16 | > 16
isolate (source animal id): 253 | > 16 | –
isolate (source animal id): 259 | > 16 | –
isolate (source animal id): 260 | > 16 | –
isolate (source animal id): 262 | > 16 | –
isolate (source animal id): 268 | – | > 16
isolate (source animal id): 282 | > 16 | 8 (≈ 9.2 µM)
isolate (source animal id): 285 | – | > 16
isolate (source animal id): 287 | > 16 | –
isolate (source animal id): 288 | 4 (≈ 4.6 µM) | –
isolate (source animal id): 289 | – | 16 (≈ 18.4 µM)
isolate (source animal id): 290 | – | 8 (≈ 9.2 µM)
isolate (source animal id): 291 | 4 (≈ 4.6 µM) | –
isolate (source animal id): 293 | > 16 | –
isolate (source animal id): 296 | – | 8 (≈ 9.2 µM)
isolate (source animal id): 298 | > 16 | 4 (≈ 4.6 µM)
isolate (source animal id): 299 | > 16 | –
isolate (source animal id): 300 | 8 (≈ 9.2 µM) | –
isolate (source animal id): 301 | – | 8 (≈ 9.2 µM)
isolate (source animal id): 302 | > 16 | –
isolate (source animal id): 304 | > 16 | –
isolate (source animal id): 306 | 4 (≈ 4.6 µM) | –
isolate (source animal id): 308 | 4 (≈ 4.6 µM) | –
isolate (source animal id): 309 | 4 (≈ 4.6 µM) | –
isolate (source animal id): 310 | – | > 16
isolate (source animal id): 313 | > 16 | –
isolate (source animal id): 318 | > 16 | –
isolate (source animal id): 320 | 8 (≈ 9.2 µM) | 8 (≈ 9.2 µM)
isolate (source animal id): 321 | > 16 | –
isolate (source animal id): 323 | > 16 | –
isolate (source animal id): 324 | > 16 | –
isolate (source animal id): 326 | > 16 | –
isolate (source animal id): 328 | > 16 | –
isolate (source animal id): 329 | > 16 | –
isolate (source animal id): 331 | – | 8 (≈ 9.2 µM)
isolate (source animal id): 333 | > 16 | 8 (≈ 9.2 µM)
isolate (source animal id): 335 | > 16 | –
isolate (source animal id): 338 | > 16 | –
isolate (source animal id): 341 | – | > 16
